This is an account of results in patent publication EP4603497A1, “CRYSTAL FORM OF CYANO-SUBSTITUTED POLYPEPTIDE COMPOUND AND PREPARATION METHOD THEREFOR” (Fujian Akeylink Biotechnology Co., Ltd., priority 2022, dated 2024).

pEC50, pIC50: −log10 of the molar value.

Data set [1] relates to coronavirus OC43 strain. The data set is described as follows: in vivo antiviral efficacy, suckling mouse infection model. Particulars: once a day for 7 consecutive days, first dose 2 hours before inoculation.
Description: Experimental example 4: Evaluation of the in vivo antiviral efficacy of the test compound using a suckling mouse infection model with the coronavirus OC43 strain
The subject of data set [2] is coronavirus HCoV OC43. The data set is described as follows: in vitro anti-coronavirus activity, cytopathic model (CPE, CellTiter Glo). The data set is classed as cell-based. The note with it: Betacoronavirus 1, 120 h; MRC5 cells, HCoV OC43 100TCID50/well, 5 days. As for the experimental part:
MRC5 cells and coronavirus HCoV OC43 were purchased from ATCC.
MRC5 cells were cultured in MEM (Sigma) culture medium supplemented with 10% fetal bovine serum (Excell), 1% dual antibody (Hyclone), 1% L-glutamine (Gibco), and 1% non-essential amino acids (Gibco). MEM (Sigma) culture medium supplemented with 5% fetal bovine serum (Excell), 1% dual antibody (Hyclone), 1% L-glutamine (Gibco), and 1% non-essential amino acids (Gibco) was used as the experimental culture medium.
Cells were seeded at a certain density (Table 12) into a 96-well plate and incubated overnight in a 5% CO2, 37°C incubator. The next day, the diluted compound (8 concentration points, double replicate wells) was added thereto, 50 µL per well. Then the diluted virus was added to each well at 100 TCID50, 50 µL per well. Cell controls (cells, no compound treatment or virus infection), virus controls (cells infected with virus, no compound treatment), and culture medium controls (only culture medium) were set up. […] Cell viability was detected using the CellTiter Glo (Promega) cell viability assay kit. […]
(§1) The inhibition rate and cell viability of the compound were analyzed using GraphPad Prism for non-linear fitting, and the half-maximal effective concentration (EC50) and half-maximal cytotoxic concentration (CC50) values of the compound were calculated. […]
(In general: Damage to the host cells serves as the signal in cytopathic effect assays.)

A short description of data set [3]: cytotoxicity experiment (same conditions, without virus infection). The format is cell-based. Particulars: human; MRC5 cells, 5 days, no virus. The method, then: Cells were seeded at a certain density (Table 12) into a 96-well plate and incubated overnight in a 5% CO2, 37°C incubator. The next day, the diluted compound (8 concentration points, double replicate wells) was added thereto, 50 µL per well. Then the diluted virus was added to each well at 100 TCID50, 50 µL per well. Cell controls (cells, no compound treatment or virus infection), virus controls (cells infected with virus, no compound treatment), and culture medium controls (only culture medium) were set up. The final volume of the experimental culture medium was 200 µL, with a final DMSO concentration of 0.5% in the culture medium. The cells were incubated for 5 days in a 5% CO2, 33°C incubator. Cell viability was detected using the CellTiter Glo (Promega) cell viability assay kit. The conditions for the cytotoxicity experiment were the same as for the antiviral experiment, but without virus infection.
The antiviral activity and cytotoxicity of the compound were represented by the inhibition rate (%) and the cell viability (%) of the cytopathic effect caused by the virus at different concentrations of the compound, respectively. […]
as §1

Data set [4] addresses T1, SARS-CoV-2 Mpro (Severe acute respiratory syndrome coronavirus 2, UniProt P0DTD1).
T1 construct: SARS-CoV-2 Mpro; purchased WuXi AppTec
The data set is described as follows: in vitro anti-SARS-CoV-2 Mpro protease activity (fluorescent substrate assay). Particulars: 25 nM Mpro protein, 25 µM substrate. The data set is classed as biochemical. The method, then: The compound was dissolved in DMSO, diluted in a 3-fold gradient using Echo655 according to the required test concentration, with 10 concentration points. Each concentration was duplicated and added to a 384-well plate. The Mpro protein and substrate were diluted with a test buffer (100 mM NaCl, 20 mM Tris-HCl, 1 mM EDTA), and the Mpro protein was added to the 384-well test plate, incubated with the compound at room temperature for 30 min, then the substrate was added. The test concentration of the Mpro protein was 25 nM and the test concentration of the substrate was 25 µM. The mixture was incubated in a constant temperature incubator at 30°C for 60 minutes. Then, the fluorescence signal value at Ex/Em = 340 nm/490 nm was detected using a microplate reader. At the same time, the background well containing substrate and compound but not containing Mpro protein was detected as a control. […]

The nature of data set [5]: in vivo. The arrangement: species or system SD rats. The note with it: rat; for AUC(0-t): AUC0-last; for half-life: T1/2. As for the experimental part:
In this study, male and female SD rats were selected as test animals.
Animals were grouped according to 3 per group/gender. […] The plasma drug concentration was determined using LC-MS/MS method. Table 14: Pharmacokinetic parameters in rats

Data set [6] is described as follows: hygroscopicity by dynamic vapor sorption (DVS). The format is physicochemical. The method, then: • Instrument model: SMS DVS Advantage dynamic vapor sorption analyzer • Test conditions: A sample (10 to 30 mg) is taken and placed in a DVS sample tray for testing. • The detailed parameters for DVS are as follows: • Temperature: 25°C • Equilibrium: dm/dt = 0.002%/min (minimum: 10 minutes, maximum: 180 minutes) • RH (%) range: 70%RH-95%RH-0%RH-95%RH • RH (%) gradient: 10% (90%RH-0%RH-90%RH), 5% (95%RH-90%RH and 90%RH-95%RH).

The nature of data set [7]: stability of the crystal form under different conditions (XRPD confirmation). The format is physicochemical. The text has this:
Table 6: Stability test under different conditions

Take `CC(C)(C)[C@H](NC(=O)C(F)(F)F)C(=O)N1[C@H]2C[C@@H]([C@H]1C(=O)N[C@H](C#N)C[C@@H]1CCNC1=O)C1(CC1)C2` [Compound 1]: the Median survival time in data set [1] (12.5 mg/kg), in data set [1] (25 mg/kg) and in data set [1] (50 mg/kg) was above 14 days throughout. Moreover, the Survival rate is on record as 87.5% in data set [1] (12.5 mg/kg), 100% in data set [1] (25 mg/kg) and 100% in data set [1] (50 mg/kg). This compound also gave a pEC50 in data set [2] of 8.29. The compound also registered an EC90 in data set [2] of 7.9 nM. In data set [3], this compound yielded a CC50 at 120 h above 10000 nM. In data set [4], this compound showed a pIC50 of 8.74.
`CC(C)(C)[C@H](NC(=O)C(F)(F)F)C(=O)N1[C@H]2C[C@@H]([C@H]1C(=O)N[C@H](C#N)C[C@@H]1CCNC1=O)C1(CC1)C2` [Crystal form A]: in data set [5] (iv, 2 mg/kg), the AUC0-last worked out at 778 ng·h/mL, the total exposure AUC(0-inf) is 785 ng·h/mL, the Cl was 42.5 mL/min/kg and the T1/2 is 18.2 min. In data set [5] (iv, 2 mg/kg), this compound gave a Vdss of 1.04 L/kg, an AUC(0-t) of 792 ng·h/mL and a half-life of 19.8 min. In addition, the AUC(0-inf) in data set [5] (iv, 2 mg/kg, AUC0-inf) amounted to 804 ng·h/mL. Further, the clearance in data set [5] (iv, 2 mg/kg, Cl) was 42.4 mL/min/kg. Besides, the Vd in data set [5] (iv, 2 mg/kg, Vdss) amounted to 1.11 L/kg. Also, in data set [5] (po, 30 mg/kg), the AUC0-last worked out at 9910 ng·h/mL, the Tmax was found to be 30 min, the AUC(0-t) amounted to 5960 ng·h/mL and the half-life is 49.6 min. This compound gave an AUC(0-inf) in data set [5] (po, 30 mg/kg, AUC0-inf) of 5980 ng·h/mL. In addition, the Tmax in data set [5] (po, 30 mg/kg, Tmax) turned out to be 55 min. In addition, in data set [6] (25°C and 80% RH), the hygroscopic weight gain stood at 0.114% and the hygroscopicity result was “no or almost no hygroscopicity”. The ΔW in data set [6] (DVS pattern, Figure 16) amounted to 0.114%. In addition, the “Confirmation of crystal form by XRPD after completion of the experiment” value (“Confirmation of crystal form by XRPD” below) in data set [7] (High humidity condition (25°C/92.5%RH), 30 days) was “Crystal form A”. Also, in data set [7] (High temperature (60°C), 30 days), the “Confirmation of crystal form by XRPD” value is listed as “Crystal form A”. In addition, the “Confirmation of crystal form by XRPD” value in data set [7] (Illumination (5000 ± 500 lux (visible light) and 90 µw/cm^2 (ultraviolet)), 10 days) is reported as “Crystal form A”.

Broadly, the pEC50 is the EC50 on a negative log10 scale, so that one unit is a factor of ten. For orientation: EC90 means the point of the concentration-response curve where the effect stands at 90%. Read a high EC90 as a need for much substance. By CC50 is commonly meant the concentration that lowers cell viability or growth by half. Broadly, the pIC50 is −log10 of the IC50, conventionally taken in molar units. A high value points to a low IC50. By AUC(0-inf) is commonly meant the area under the concentration-time curve extrapolated to infinity. Low values mean less exposure, high ones more exposure. In general, Vdss refers to the apparent volume that relates the amount in the body to the concentration in plasma or blood. High values mean wide distribution into tissue, low ones little distribution into tissue. For orientation: AUC(0-t) means the area under the concentration-time curve up to a stated or last time point. Higher therefore signals more exposure. The clearance is the volume of plasma or blood freed of the substance per unit of time. Broadly, the half-life is the time in which the quantity being followed falls by half. A high value points to slow decline. For orientation: Vd means the apparent volume that relates the amount in the body to the concentration in plasma or blood. The low end stands for confinement near the circulation, the high end for extensive tissue distribution. A word on the Tmax: it is the time at which the peak concentration occurs.
